Measured values from US8957093B2, “N-biphenylmethylindole modulators of PPARG” (The Scripps Research Institute, priority 2011, dated 2015).
Like-named read-outs stand apart in the source and are kept apart here.

Experiments:
GST-PPARG-LBD = GST-PPARG-LBD (Homo sapiens (Human), UniProt P37231); experiment: Lanthascreen PPARG competitive binding assay (Invitrogen, TR-FRET); details: inc = incomplete curve, NA = not active; for IC50: read-out: IC50 (nM) Lantha
Procedure: Lanthascreen PPARG Competitive Binding Assay (Invitrogen)
The assay was performed according to manufacturer protocol. A mixture of […], 5 nM Tb-GST-antibody, 5 nM Fluormone Pan-PPAR Green, and serial dilutions of the experimental compound, beginning at 10 μM downwards, was added to wells of black 384-well low-volume plates (Greiner) to a total volume of 18 μL. All dilutions were made in TR-FRET assay buffer C. DMSO at 2% final concentration was used as a no-ligand control. Experiment was performed in triplicate, and incubated for 2 hours in the dark prior to assay read in Perkin Elmer ViewLux ultra HTS microplate reader. FRET signal was measured by excitation at 340 nm and emission at 520 nm for fluorescein and 490 nm for terbium. Fold change over DMSO was calculated using GraphPad Prism Software (La Jolla, Calif.) by calculating 520 nm/490 nm ratio. Graphs were plotted as fold change of FRET signal for compound treatment over DMSO-only control.

[1] = target: Gal-4-PPAR (human PPAR LBD fused to GAL4 DNA-binding domain) (Homo sapiens (Human), UniProt P37231); experiment: GAL4-PPARG LBD / UAS-luciferase transactivation assay in HEK 293T cells; assay type: cell-based; details: for EC50: GAL4 transactivation, HEK 293T cells, NA = not active, read-out: EC50 (nM) GAL4; for activation at 10 µM: HEK-293T, 18 h, read-out: % transactivation at 10 μM (GAL4)
Gal-4-PPAR (human PPAR LBD fused to GAL4 DNA-binding domain), sequence (P37231 238-503): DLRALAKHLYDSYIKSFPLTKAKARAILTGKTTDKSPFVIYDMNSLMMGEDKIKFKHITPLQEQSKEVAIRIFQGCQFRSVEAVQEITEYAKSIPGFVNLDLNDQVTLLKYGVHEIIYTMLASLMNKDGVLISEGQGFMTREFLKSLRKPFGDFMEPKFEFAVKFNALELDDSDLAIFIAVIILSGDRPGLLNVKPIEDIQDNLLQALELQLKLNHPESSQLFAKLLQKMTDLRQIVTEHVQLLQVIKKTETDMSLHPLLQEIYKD

[2] = Lanthascreen PPARG competitive binding
[3] = Lanthascreen competitive binding

GST-PPARG-LBD, sequence (P37231 238-503): as above

Row | IC50 (nM) Lantha (GST-PPARG-LBD; [2]) | EC50 [1] | activation at 10 µM [1] | SMILES | IC50 (GST-PPARG-LBD; [3]) | further results
1 | inc |  |  | Cc1c(C)n(Cc2ccc(-c3ccccc3C#N)cc2)c2ccc(C(=O)N[C@@H](C)c3ccc(C(F)(F)F)cc3)cc12 [Example 277, (S)-1-((2′-cyano-[1,1′-biphenyl]-4-yl)methyl)-2,3-dimethyl-N-(1-(4-(trifluoromethyl)phenyl)ethyl)-1H-indole-5-carboxamide] |  | 
2 |  | 941 nM | 10% | Cc1c(C)n(Cc2ccc(-c3ccccc3C(=O)O)cc2)c2ccc(C(=O)N[C@@H](C)c3ccc(OC(C)C)cc3)cc12 [Example 201, (S)-4′-((5-((1-(4-isopropoxyphenyl)ethyl)carbamoyl)-2,3-dimethyl-1H-indol-1-yl)methyl)-[1,1′-biphenyl]-2-carboxylic acid] |  | 
3 |  |  |  | CC(=O)NS(=O)(=O)c1ccccc1-c1ccc(Cn2c(C)c(C)c3cc(C(=O)N[C@@H](C)c4cccc(C(C)C)c4)ccc32)cc1 [Example 248, (S)-1-((2′-(N-acetylsulfamoyl)-[1,1′-biphenyl]-4-yl)methyl)-N-(1-(3-isopropylphenyl)ethyl)-2,3-dimethyl-1H-indole-5-carboxamide] | > 1000 nM | 
4 |  | 193 nM | 5% | Cc1c(C)n(Cc2ccc(-c3ccccc3C(=O)O)cc2)c2ccc(C(=O)N[C@@H](C)c3ccc(Cl)c(C(F)(F)F)c3)cc12 [Example 222, (S)-4′-((5-((1-(4-chloro-3-(trifluoromethyl)phenyl)ethyl)carbamoyl)-2,3-dimethyl-1H-indol-1-yl)methyl)-[1,1′-biphenyl]-2-carboxylic acid] |  | 
5 |  |  |  | Cc1c(C)n(Cc2ccc(-c3ccccc3C(=O)NCCO)cc2)c2ccc(C(=O)N[C@@H](C)c3cccc(C(C)C)c3)cc12 [Example 307, (S)-1-((2′-((2-Hydroxyethyl)carbamoyl)-[1,1′-biphenyl]-4-yl)methyl)-N-(1-(3-isopropylphenyl)ethyl)-2,3-dimethyl-1H-indole-5-carboxamide] |  | IC50 (GST-PPARG-LBD; [2]): 600 nM
6 | inc |  |  | COc1ccccc1[C@H](C)NC(=O)c1ccc2c(c1)c(C)c(C)n2Cc1ccc(-c2ccccc2C#N)cc1 [Example 292, (S)-1-((2′-cyano-[1,1′-biphenyl]-4-yl)methyl)-N-(1-(2-methoxyphenyl)ethyl)-2,3-dimethyl-1H-indole-5-carboxamide] |  | 
7 |  |  |  | C[C@H](NC(=O)c1ccc2c(ccn2Cc2ccc(-c3ccc(C(=O)O)cc3)cc2)c1)c1ccc([N+](=O)[O-])cc1 [Example 59, (S)-4′-((5-((1-(4-Nitrophenyl)ethyl)carbamoyl)-1H-indol-1-yl)methyl)-[1,1′-biphenyl]-4-carboxylic acid] | > 1000 nM | 
8 | inc |  |  | Cc1c(C)n(Cc2ccc(-c3ccccc3C#N)cc2)c2ccc(C(=O)N[C@@H](C)c3ccc(Cl)cc3)cc12 [Example 283, (S)—N-(1-(4-chlorophenyl)ethyl)-1-((2′-cyano-[1,1′-biphenyl]-4-yl)methyl)-2,3-dimethyl-1H-indole-5-carboxamide] |  | 
9 | inc |  |  | Cc1c(C)n(Cc2ccc(-c3ccccc3C#N)cc2)c2ccc(C(=O)N[C@@H](C)c3cccc(Cl)c3)cc12 [Example 281, (S)—N-(1-(3-chlorophenyl)ethyl)-1-((2′-cyano-[1,1′-biphenyl]-4-yl)methyl)-2,3-dimethyl-1H-indole-5-carboxamide] |  | 
10 | inc |  |  | Cc1c(C)n(Cc2ccc(-c3ccccc3C#N)cc2)c2ccc(C(=O)N[C@@H](C)c3ccccc3)cc12 [Example 291, (S)-1-((2′-cyano-[1,1′-biphenyl]-4-yl)methyl)-2,3-dimethyl-N-(1-phenylethyl)-1H-indole-5-carboxamide] |  | 
11 |  |  |  | CCC(NC(=O)c1ccc2c(ccn2Cc2ccccc2-c2ccccc2C(=O)O)c1)c1ccccc1 (stereo not shown) [Example 68, 2′-((5-((1-phenylpropyl)carbamoyl)-1H-indol-1-yl)methyl)-[1,1′-biphenyl]-2-carboxylic acid] | > 1000 nM | 
12 |  |  |  | Cc1c(C)n(Cc2ccc(-c3ccccc3C(=O)O)cc2)c2ccc(C(=O)N[C@@H](C)c3cc(Cl)ccn3)cc12 [Example 265, (S)-4′-((5-((1-(4-chloropyridin-2-yl)ethyl)carbamoyl)-2,3-dimethyl-1H-indol-1-yl)methyl)-[1,1′-biphenyl]-2-carboxylic acid] | 4 nM | 
13 |  |  |  | C[C@H](NC(=O)c1ccc2c(ccn2Cc2ccc(-c3ccccc3C(=O)OC(C)(C)C)cc2)c1)c1ccc([N+](=O)[O-])cc1 [Example 55, (S)-tert-Butyl 4′-((5-((1-(4-nitrophenyl)ethyl)carbamoyl)-1H-indol-1-yl)methyl)-[1,1′-biphenyl]-2-carboxylate] | > 1000 nM | 
14 |  |  | 0% | Cc1c(C)n(Cc2ccc(-c3ccccc3C(=O)O)cc2)c2ccc(C(=O)N[C@H]3CCN(C(=O)OCc4ccccc4)C3)cc12 [Example 204, (S)-4′-((5-((1-((benzyloxy)carbonyl)pyrrolidin-3-yl)carbamoyl)-2,3-dimethyl-1H-indol-1-yl)methyl)-[1,1′-biphenyl]-2-carboxylic acid] |  | 
15 | inc |  |  | Cc1c(C)n(Cc2ccc(-c3ccccc3C#N)cc2)c2ccc(C(=O)N[C@@H](C)c3ccccc3Cl)cc12 [Example 287, (S)—N-(1-(2-chlorophenyl)ethyl)-1-((2′-cyano-[1,1′-biphenyl]-4-yl)methyl)-2,3-dimethyl-1H-indole-5-carboxamide] |  | 
16 |  |  |  | CSc1ccc(-c2ccc(Cn3ccc4cc(C(=O)N[C@@H](C)c5ccc([N+](=O)[O-])cc5)ccc43)cc2)cc1 [Example 51, (S)-1-((4′-(Methylthio)-[1,1′-biphenyl]-4-yl)methyl)-N-(1-(4-nitrophenyl)ethyl)-1H-indole-5-carboxamide] | > 1000 nM | 
17 |  |  |  | Cc1c(C)n(Cc2ccc(-c3ccccc3S(=O)(=O)NC(C)(C)C)cc2)c2ccc(C(=O)N[C@@H](C)c3cccc(C(C)C)c3)cc12 [Example 246, (S)-1-((2′-(N-(tert-butyl)sulfamoyl)-[1,1′-biphenyl]-4-yl)methyl)-N-(1-(3-isopropylphenyl)ethyl)-2,3-dimethyl-1H-indole-5-carboxamide] | > 1000 nM | 
18 |  |  |  | CCC(NC(=O)c1ccc2c(c1)c(C)c(C)n2Cc1ccccc1-c1cccc(C(=O)O)c1)c1ccccc1 (stereo not shown) [Example 126, 2′-((2,3-Dimethyl-5-((1-phenylpropyl)carbamoyl)-1H-indol-1-yl)methyl)-[1,1′-biphenyl]-3-carboxylic acid] | 99 nM | 
19 | inc |  |  | Cc1c(C)n(Cc2ccc(-c3ccccc3C#N)cc2)c2ccc(C(=O)N[C@@H](C)c3ccc(OC(F)(F)F)cc3)cc12 [Example 279, (S)-1-((2′-cyano-[1,1′-biphenyl]-4-yl)methyl)-2,3-dimethyl-N-(1-(4-(trifluoromethoxy)phenyl)ethyl)-1H-indole-5-carboxamide] |  | 
20 | inc |  |  | CCc1ccc([C@H](C)NC(=O)c2ccc3c(c2)c(C)c(C)n3Cc2ccc(-c3ccccc3C#N)cc2)cc1 [Example 289, (S)-1-((2′-cyano-[1,1′-biphenyl]-4-yl)methyl)-N-(1-(4-ethylphenyl)ethyl)-2,3-dimethyl-1H-indole-5-carboxamide] |  | 
21 |  | 169 nM | 35% | CC[C@@H](NC(=O)c1ccc2c(c1)c(C)c(C)n2Cc1ccccc1-c1ccc(C(=O)O)cc1)c1ccccc1 [Example 195, (R)-2′-((2,3-dimethyl-5-((1-phenylpropyl)carbamoyl)-1H-indol-1-yl)methyl)-[1,1′-biphenyl]-4-carboxylic acid] |  | 
22 |  | 596 nM | 10% | Cc1c(C)n(Cc2ccc(-c3ccccc3C(=O)O)cc2)c2ccc(C(=O)NCc3ccc(C(F)(F)F)cc3F)cc12 [Example 167, 4′-((5-((2-fluoro-4-(trifluoromethyl)benzyl)carbamoyl)-2,3-dimethyl-1H-indol-1-yl)methyl)-[1,1′-biphenyl]-2-carboxylic acid] |  | 
23 |  | 191 nM | 40% | CC[C@@H](NC(=O)c1ccc2c(c1)c(C)c(C)n2Cc1ccccc1-c1cccc(C(=O)O)c1)c1ccccc1 [Example 193, (R)-2′-((2,3-dimethyl-5-((1-phenylpropyl)carbamoyl)-1H-indol-1-yl)methyl)-[1,1′-biphenyl]-3-carboxylic acid] |  | 
24 |  | 2750 nM | 10% | Cc1c(C)n(Cc2ccc(-c3ccccc3C(=O)O)cc2)c2ccc(C(=O)N[C@@H](C)c3cccc(OC(C)C)c3)cc12 [Example 199, (S)-4′-((5-((1-(3-isopropoxyphenyl)ethyl)carbamoyl)-2,3-dimethyl-1H-indol-1-yl)methyl)-[1,1′-biphenyl]-2-carboxylic acid] |  | 
25 |  | 793 nM | 18% | CC[C@H](NC(=O)c1ccc2c(c1)c(C)c(C)n2Cc1ccccc1-c1cccc(C(=O)O)c1)c1ccccc1 [Example 194, (S)-2′-((2,3-dimethyl-5-((1-phenylpropyl)carbamoyl)-1H-indol-1-yl)methyl)-[1,1′-biphenyl]-3-carboxylic acid] |  | 
26 |  | 931 nM | 18% | Cc1c(C)n(Cc2ccc(-c3ccccc3C(=O)O)cc2)c2ccc(C(=O)NCc3ccc(Cl)cc3Cl)cc12 [Example 168, 4′-((5-((2,4-dichlorobenzyl)carbamoyl)-2,3-dimethyl-1H-indol-1-yl)methyl)-[1,1′-biphenyl]-2-carboxylic acid] |  | 
